# Reference: patent publication US7989441B2, “Organic compounds” (Novartis AG, priority 2005, dated 2011)
# Residues, ends and D or L forms follow the SMILES beside them.
# What was measured:
# [1] = target: T1, GST-BIR3 fusion containing amino acids 248-358 from XIAP (Homo sapiens, UniProt P98170); experiment: XIAP BIR3 Smac Elisa; type: binding; settings: concentration which displaces half of GST-BIR3 signal, IAP not given
# T1 construct: a GST-BIR3 fusion containing amino acids 248-358 from XIAP was used
# Procedure: (§1) In order to measure the ability of the inventive compounds to bind the BIR3 peptide binding pocket, a solution phase assay on the FMAT or ELISA technology platform is utilized.
# (§2) Compounds are incubated with GST-BIR3 fusion protein and biotinylated SMAC peptide (AVPFAQK) in stretavidin-coated 96-well plates. For XIAP BIR3 Smac Elisa, a GST-BIR3 fusion containing amino acids 248-358 from XIAP was used. For CIAP1 BIR3 Smac Elisa, a GST-BIR3 fusion containing amino acids 259-364 from CIAP1 was used. Following a 30-minute incubation, wells are extensively washed. The remaining GST-BIR3 fusion protein is monitored by ELISA assay involving first, incubation with goat anti-GST antibodies followed by washing and incubation with alkaline phosphatase conjugated anti-goat antibodies. Signal is amplified using Attophos (Promega) and read with Cytoflour Ex 450 nm/40 and Em 580 nm. IC50s correspond to concentration of compound which displaces half of GST-BIR3 signal. The IC50 for non-biotinylated Smac is 400 nM.
# [2] = target: T2, GST-BIR3 fusion containing amino acids 259-364 from CIAP1 (Homo sapiens, UniProt Q13490); experiment: CIAP1 BIR3 Smac Elisa; type: binding; settings: concentration which displaces half of GST-BIR3 signal, IAP not given
# T2 construct: a GST-BIR3 fusion containing amino acids 259-364 from CIAP1 was used
# Procedure: as §1, §2
# [3] = tested on: GST-BIR3 fusion protein (BIR3 peptide binding pocket); experiment: FMAT solution phase assay: competition of GST-BIR3 off Smac peptide beads
# Procedure: as §1
# Biotinylated Smac 7-mer peptide (AVPIAQK, lysine ε-amino group is biotinylated) is immobilized on streptavidin coated beads. GST-BIR3 fusion protein is precipitated with FMAT beads and is detected using fluorescent tagged anti-GST antibodies. […] The IC50 for non-biotinylated Smac is 400 nM.
# T1 sequence (P98170 248-358): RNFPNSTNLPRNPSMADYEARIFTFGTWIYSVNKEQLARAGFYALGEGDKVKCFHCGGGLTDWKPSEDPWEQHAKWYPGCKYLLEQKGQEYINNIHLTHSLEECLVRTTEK
# T2 sequence (Q13490 259-364): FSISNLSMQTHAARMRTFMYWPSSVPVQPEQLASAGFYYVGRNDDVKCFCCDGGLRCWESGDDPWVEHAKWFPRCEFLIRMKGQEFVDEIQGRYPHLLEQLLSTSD
smiles,measurement,setting,value
CC[C@H](C)[C@H](NC(=O)[C@@H]1CCCN1C(=O)[C@@H](NC(=O)[C@H](C)N)C(C)C)C(=O)N[C@@H](C)C(=O)N[C@@H](CCC(N)=O)C(=O)N[C@@H](CCCCN)C(=O)O [non-biotinylated Smac] (H-AVPIAQK-OH; N-terminus and C-terminus assumed),IC50,[1],400 nM
same,IC50,[2],400 nM
same,competing GST-BIR3 off the FMAT beads,[3]; FIG. 2,highly effective
same,IC50,"[3]; FMAT, displacement of GST-BIR3 from biotinylated Smac 7-mer peptide (AVPIAQK) beads",400 nM
